In US20180111913A1, “SUBSTITUTED BENZOFURAN DERIVATIVES AS NOVEL ANTIMYCOBACTERIAL AGENTS” (priority 2015, published 2018):
In brackets after ≈: the same amount, converted by molar mass. Like-named read-outs stand apart in the source and are kept apart here.

Columns and labels:
Mtb (Erdman lux strain) = assay type: in vivo, Mycobacterium tuberculosis in female Balb/C mice
M tuberculosis = assay type: in vivo, Mycobacterium tuberculosis in GKO mice
[1] = target: Mtb Pks13-TE domain (wild-type) (Mycobacterium tuberculosis, UniProt I6X8D2); test: biochemical; assay type: biochemical
Chain of Mtb Pks13-TE domain (wild-type) (I6X8D2 1451-1733): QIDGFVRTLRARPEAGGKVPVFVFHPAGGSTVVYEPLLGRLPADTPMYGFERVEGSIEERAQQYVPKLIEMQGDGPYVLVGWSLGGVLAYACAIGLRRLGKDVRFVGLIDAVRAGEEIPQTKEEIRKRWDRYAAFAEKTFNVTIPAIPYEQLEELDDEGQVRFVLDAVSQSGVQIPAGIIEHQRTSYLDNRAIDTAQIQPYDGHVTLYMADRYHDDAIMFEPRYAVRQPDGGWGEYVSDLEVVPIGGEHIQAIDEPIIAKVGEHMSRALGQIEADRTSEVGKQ

Mtb strain mc^27000 = test: microbe, parasite or virus in culture; assay type: cell-based, Mycobacterium tuberculosis
[2] = tested on: human dermal fibroblast (HDF) cells; details: for growth inhibition in HDF cells relative to DMSO only control: up to 40 (unit not given); for Non-Toxic Concentration: human, 48 h
[3] = Mtb Pks13-TE domain, mean ± s.d. of triplicates, read-out: IC50
[4] = Pks13-TE, 20 μM 4-MUH, read-out: IC50
[5] = Mtb mc^27000, liquid medium, 96-well plates
[6] = […], mean ± s.d. of triplicates, NI: no inhibition
[7] = Pks13 enzyme inhibition, read-out: Pks13 IC50
[8] = Mycobacterium tuberculosis, Mtb mc^27000, liquid medium, 96-well plates, read-out: MIC
[9] = HDF cell survival relative to DMSO-only control at the first (or only) Non-Toxic Concentration value
[10] = Mycobacterium tuberculosis, read-out: Pks13 MIC
[11] = HDF cell survival relative to DMSO-only control at the second Non-Toxic Concentration value
[12] = Mtb mc^27000, liquid medium, 96-well plates, read-out: MIC

| SMILES | IC50 [1, 4] [nM] | IC50 [1, 7] [nM] | MIC (Mtb strain mc^27000; [8]) [µM] | Survival vs. Control [2, 9] [%] | Non-Toxic Concentration [2] [µM] | MIC (Mtb strain mc^27000; [10]) [µM] | other results |
| --- | --- | --- | --- | --- | --- | --- | --- |
| NNC(=O)c1ccncc1 [isoniazid, reference compound] |  |  |  |  |  |  | log reduction (CFU) in the spleen (Mtb (Erdman lux strain); Balb/C mice, isoniazid control 25 mg/kg, 4 weeks, spleen): 2.52 log; Diff of Means, Control vs. treatment (Mtb (Erdman lux strain); […], organ not given, values match spleen reductions of b137): 2.523; Lung CFU (Mtb (Erdman lux strain); mouse, in vivo): 4.98; Lung RLU (Mtb (Erdman lux strain); mouse, in vivo): 2.37; Spleen CFU (Mtb (Erdman lux strain); mouse, in vivo): 2.35; Spleen RLU (Mtb (Erdman lux strain); mouse, in vivo): 1.59; log reduction (CFU) in the lungs (Mtb (Erdman lux strain); mouse, in vivo): 1.11 log; Diff of Means, Control vs. treatment, Lung (M tuberculosis; mouse, in vivo): 3.013; Diff of Means, Control vs. treatment, Spleen (M tuberculosis; mouse, in vivo): 3.644; Lung CFU (M tuberculosis; mouse, in vivo): 5.15; Lung RLU (M tuberculosis; mouse, in vivo): 3.51; Spleen CFU (M tuberculosis; mouse, in vivo): 2.49; Spleen RLU (M tuberculosis; mouse, in vivo): 1.77; log CFU reduction in the spleen (M tuberculosis; mouse, in vivo): 4.16 log CFU; log CFU reduction relative to untreated control in the lungs (M tuberculosis; mouse, in vivo): 3.02 log CFU; log reduction in RLU (luciferase assay) (M tuberculosis; mouse, in vivo, 25 mg/kg): 1.01 log |
| CCOC(=O)c1c(-c2ccccc2)oc2ccc(O)c(CN3CCOCC3)c12 [compound 5] | 710 |  |  |  |  |  | IC50 [1, 3]: 710 ± 50 nM; IC50 value lower than compound F against Pks13-TE ([1]; relative to compound F): > 2 fold; loss of inhibitory activity / higher IC50 against Pks13-TE compared to the test compound ([1]; relative to test compound): ~3 fold; higher MIC compared to the test compound (Mtb strain mc^27000): 6 fold; MIC (Mtb strain mc^27000; [5]): 13.3 ± 1.6 µM (≈ 5.07 µg/mL); MIC (Mtb strain mc^27000; [6]): 13.3 ± 1.6 µM (≈ 5.07 µg/mL); MIC higher than compound F in whole cell testing (Mtb strain mc^27000; relative to compound F): ~2 fold; growth inhibition in HDF cells relative to DMSO only control [2]: did not show any growth inhibition |
| CNC(=O)c1c(-c2ccc(O)nc2)oc2cc(O)cc(CN3CCCCC3)c12 [compound 88] |  | 2800 | 2.8 (≈ 1.07 µg/mL) | 96 | 50 |  |  |
| CCOC(=O)c1c(-c2ccc(OC)cc2)oc2ccc(O)c(CN3CCCCC3)c12 [compound 21] | 290 | 290 | 2.6 (≈ 1.06 µg/mL) | 104 | 50 | 2.6 (≈ 1.06 µg/mL) |  |
| CNC(=O)c1c(-c2ccc(O)cc2)oc2cc(O)cc(CN3CCCCC3)c12 [compound 47] | 570 |  | 1 (≈ 0.38 µg/mL) | 98 | 50 | 1 (≈ 0.38 µg/mL) | activity in the lungs or the spleen, in words (M tuberculosis; GKO mice, 300 mg/kg dosing): did not show any activity; Lung CFU (M tuberculosis; mouse, in vivo): 8.39; Lung RLU (M tuberculosis; mouse, in vivo): 6.09; Spleen CFU (M tuberculosis; mouse, in vivo): 6.84; Spleen RLU (M tuberculosis; mouse, in vivo): 4.45 |
| CNC(=O)c1c(-c2cc(F)c(O)c(F)c2)oc2ccc(O)c(CN3CCCCC3)c12 [compound 64] | 1500 | 1500 to 1900 | > 40 | 94 | 100 |  | Pks13 MIC (Mtb strain mc^27000; whole cell, mc^27000 Mtb, NI at 40 μM): NI (40 μM) |
| CNC(=O)c1c(-c2ccc(F)cc2)oc2ccc(O)c(CN3CCCCC3)c12 [compound 29] | 300 | 300 | 4.5 (≈ 1.72 µg/mL) | 89 |  | 4.5 (≈ 1.72 µg/mL) | Survival vs. Control [2, 11]: 112% |
| COC(=O)c1c(-c2ccccc2)oc2cc(O)cc(CNC(C)C)c12 [compound 67] |  | 700 | 9 (≈ 3.05 µg/mL) | 97 | 25 | 9 (≈ 3.05 µg/mL) |  |
| CNC(=O)c1c(-c2ccccc2)oc2cc(O)cc(CN3CCCCC3)c12 [compound 40] | 600 | 600 | 20 (≈ 7.29 µg/mL) | 101 | 100 | 20 (≈ 7.29 µg/mL) |  |
| CCOC(=O)c1c(-c2ccccc2)oc2ccc(O)c(CN3CCCC(C)C3)c12 (centres unmarked) [compound 2] | 120 |  |  |  |  |  | IC50 [1, 3]: 120 ± 20 nM; higher MIC compared to the test compound (Mtb strain mc^27000): ~2 fold; MIC (Mtb strain mc^27000; [5]): 4.4 ± 0.2 µM (≈ 1.73 µg/mL); MIC (Mtb strain mc^27000; [6]): 4.4 ± 0.2 µM (≈ 1.73 µg/mL); growth inhibition in HDF cells relative to DMSO only control [2]: did not show any growth inhibition |
| CCOC(=O)c1c(-c2ccccc2)oc2cc(N)c(O)c(CN3CCCCC3)c12 [compound 27] | 370 | 370 | 8 (≈ 3.16 µg/mL) | 77 |  | 8 (≈ 3.16 µg/mL) | Survival vs. Control [2, 11]: 114% |
| CCOC(=O)c1c(-c2ccccc2)oc2cc(N)cc(CN3CCCCC3)c12 [compound 34] | 4500 | 4500 | 9.2 (≈ 3.48 µg/mL) | 82 | 100 | 9.2 (≈ 3.48 µg/mL) |  |
| CCOC(=O)c1c(-c2ccc(O)cc2)oc2cc(O)cc(CN3CCCCC3)c12 [compound 45] | 440 | 440 | 1.1 (≈ 0.435 µg/mL) | 89 | 100 | 1.1 (≈ 0.435 µg/mL) |  |
| CNC(=O)c1c(-c2ccc(OC)cc2)oc2ccc(O)c(CN3CCCCC3)c12 [compound 31] | 260 | 260 | 1.1 (≈ 0.434 µg/mL) | 111 | 50 | 1.1 (≈ 0.434 µg/mL) | log CFU reduction in the lungs vs. untreated controls (M tuberculosis; GKO mice, 100 mg/kg oral once daily, 9 days, lungs): 0.84 log CFU; log CFU reduction in the spleen relative to untreated controls (M tuberculosis; GKO mice, 100 mg/kg oral once daily, 9 days, spleen): 1.54 log CFU; Diff of Means, Control vs. treatment, Lung (M tuberculosis; mouse, in vivo): 0.834; Diff of Means, Control vs. treatment, Spleen (M tuberculosis; mouse, in vivo): 2.623; Diff of Means, Inhibitor 31 vs. Inhibitor 32, Lung (M tuberculosis; mouse, in vivo): 0.340; Diff of Means, Inhibitor 31 vs. Inhibitor 32, Spleen (M tuberculosis; mouse, in vivo): 0.522; Diff of Means, Inhibitor 31 vs. Isoniazid, Lung (M tuberculosis; mouse, in vivo): 2.179; Diff of Means, Inhibitor 31 vs. Isoniazid, Spleen (M tuberculosis; mouse, in vivo): 2.101; Lung CFU (M tuberculosis; mouse, in vivo): 7.33; Lung RLU (M tuberculosis; mouse, in vivo): 5.06; Spleen CFU (M tuberculosis; mouse, in vivo): 5.11; Spleen RLU (M tuberculosis; mouse, in vivo): 2.59 |
| CCOC(=O)c1c(-c2ccccc2)oc2cc(O)cc(CN3CCC(C#N)CC3)c12 [compound 69] | 1600 | 1600 | 20 (≈ 8.09 µg/mL) | 93 | 50 | 20 (≈ 8.09 µg/mL) |  |
| Oc1ccc2[nH]c(-c3ccccc3)nc2c1CN1CCCCC1 [compound 8] | 6800 | 6800 | 22 (≈ 6.76 µg/mL) | 78 |  | 22 (≈ 6.76 µg/mL) | Survival vs. Control [2, 11]: 94% |
| O=C(c1c(-c2ccccc2)oc2ccc(O)c(CN3CCCCC3)c12)N1CCCCC1 [compound 42] | 740 | 320 |  | 89 | 100 | > 10 | MIC (Mtb strain mc^27000; [12]): 3.1 µM (≈ 1.3 µg/mL) |
| OCc1c(-c2ccccc2)oc2ccc(O)c(CN3CCCCC3)c12 [compound 65] | 240 | 240 | 12.5 (≈ 4.22 µg/mL) | 95 | 25 | 6 to 12.5 (≈ 2.02 to 4.22 µg/mL) |  |
| CCOC(=O)c1c(-c2ccccc2)oc2ccc(O)c(CN3CCCC3)c12 [compound 3] | 240 ± 20 |  |  |  |  |  | IC50 [1, 3]: 240 ± 20 nM; higher MIC compared to the test compound (Mtb strain mc^27000): ~2 fold; MIC (Mtb strain mc^27000; [12]): 4.1 µM (≈ 1.5 µg/mL); MIC (Mtb strain mc^27000; [6]): 4.1 ± 0.1 µM (≈ 1.5 µg/mL); IC50 ([2]; read-out: half-maximum inhibitory concentration in HDF cells, HDF cells, resazurin): > 15000 nM |
